In patent US20190209451A1, “SOLUBILIZING AGENTS FOR UV FILTERS IN COSMETIC FORMULATIONS” (BASF SE, priority 2016, published 2019):

Experiment: Determination of the solubility of organic UV filters in levulynates used as solvents
Type: physicochemical
Conditions: UV filter dissolved in the named levulynate as solvent; stirred seven days at 25° C.; UV/Vis-spectrometry
Procedure: Afterwards 0.02 g (1%) of the respective substance are weighed and added to the solvent. The vial is placed into a thermostated waterbath, where the suspension/solution is stirred during seven days at 25° C. If the amount of substance put into the solvent is fully soluble, additional substance is added until precipitation can be observed. After seven days, the sample is centrifuged for 30 minutes at 13000 rpm. The supernatant is transferred into a small beaker. In case the sample is still turbid, it is filtered through a 0.2 μm non-steril Membrex 25 PET filter. Clear solutions must not be filtered. When a clear solution is obtained, the concentration of the substance is determined with UV/Vis-spectrometry. For this purpose the sample may be diluted with a suitable solvent or, in case of lower concentrations, may be measured as is. If the test solvent is water, further dilution is done with water. If the test solvent is volatile, the same solvent is taken for dilution. If the test solvent is a cosmetic emollient, dioxane is used for further dilution. In order to evaluate the concentration from the UV-spectroscopic results, the extinction coefficient is needed, which is determined independently with a solvent of similar polarity like that one used for dilution of the saturated solutions. The solubility can be calculated using the equation of the Lambert-Beer-Law: [formula] • c=concentration (mol/l) • E=extinction measured at λ max. • f=dilution factor • ε=extinction coefficient at λmax [I/(mol/cm)] • d=optical pathlength [cm] Due to spectra overlapping the solubility of some crystalline UV filters in liquid UV filters cannot be determined exactly by UV spectroscopy. In this case solubilities are determined via HPLC with reversed phase C-18 columns and UV-detectors.

For CCCCCCCCCCCCOC(=O)CCC(C)=O [C12-Levulynate, levulinic acid dodecyl ester], the “Solubility of Bis-Ethylhexyloxyphenol Methoxyphenyl Triazine” value was 3.0 w/%, the “Solubility of Diethylamino Hydroxybenzoyl Hexyl Benzoate” value was 29.1 w/% and the “Solubility of Ethylhexyl Triazone” value was 11.7 w/%.
In the case of CCCCCCCCCCOC(=O)CCC(C)=O [C10-levulynate, levulinic acid decyl ester], the “Solubility of Bis-Ethylhexyloxyphenol Methoxyphenyl Triazine” value is reported as 9.1 w/%, the “Solubility of Diethylamino Hydroxybenzoyl Hexyl Benzoate” value is reported as 31.0 w/% and the “Solubility of Ethylhexyl Triazone” value is reported as 21.0 w/%.
In the case of CCCCC(CC)COC(=O)CCC(C)=O (centres unmarked) [2-Ethylhexyl-levulynate], the “Solubility of Bis-Ethylhexyloxyphenol Methoxyphenyl Triazine” value is reported as 6.5 w/% and the “Solubility of Diethylamino Hydroxybenzoyl Hexyl Benzoate” value is reported as 33.4 w/%.
For CCCCCCCCOC(=O)CCC(C)=O [C8-levulynate, levulinic acid octyl ester], the “Solubility of Bis-Ethylhexyloxyphenol Methoxyphenyl Triazine” value was 10.4 w/%, the “Solubility of Diethylamino Hydroxybenzoyl Hexyl Benzoate” value was 42.6 w/% and the “Solubility of Ethylhexyl Triazone” value was 25.1 w/%.
